In the series the test system is CCRIS mutagenicity, Ames/micronucleus/aberration tests. Description: CCRIS mutagenicity studies.

Results on 2 molecules are retold here after PubChem BioAssay AID1259407 (Chemical Carcinogenesis Research Information System (CCRIS), 2018).

SMILES strings stand for the structures. The source made the active and inactive calls. No rule for the calls is given here.

`CCC/C=C(/C=O)CC`: the mutagenic call (Test System: AMES SALMONELLA TYPHIMURIUM, Strain/Indicator: TA97, Metabolic Activation: HAMSTER, LIVER, S-9, AROCLOR 1254 (10 OR 30%), Method: PREINCUBATION) was “inactive; negative”; the mutagenic call (Test System: AMES SALMONELLA TYPHIMURIUM, Strain/Indicator: TA97, Metabolic Activation: NONE, Method: PREINCUBATION) was “inactive; negative”; the mutagenic call (Test System: AMES SALMONELLA TYPHIMURIUM, Strain/Indicator: TA97, Metabolic Activation: RAT, LIVER, S-9, AROCLOR 1254 (10 OR 30%), Method: PREINCUBATION) is “inactive; negative”; the mutagenic call (Test System: AMES SALMONELLA TYPHIMURIUM, Strain/Indicator: TA98, Metabolic Activation: HAMSTER, LIVER, S-9, AROCLOR 1254 (10 OR 30%), Method: PREINCUBATION) is “inactive; negative”; the mutagenic call (Test System: AMES SALMONELLA TYPHIMURIUM, Strain/Indicator: TA98, Metabolic Activation: NONE, Method: PREINCUBATION) was “inactive; negative”; the mutagenic call (Test System: AMES SALMONELLA TYPHIMURIUM, Strain/Indicator: TA98, Metabolic Activation: RAT, LIVER, S-9, AROCLOR 1254 (10 OR 30%), Method: PREINCUBATION) was “inactive; negative”. For the same molecule, the mutagenic call was “inactive; negative” (Test System: AMES SALMONELLA TYPHIMURIUM, Strain/Indicator: TA100, Metabolic Activation: HAMSTER, LIVER, S-9, AROCLOR 1254 (10 OR 30%), Method: PREINCUBATION); “inactive; negative” (Test System: AMES SALMONELLA TYPHIMURIUM, Strain/Indicator: TA100, Metabolic Activation: NONE, Method: PREINCUBATION); “inactive; negative” (Test System: AMES SALMONELLA TYPHIMURIUM, Strain/Indicator: TA100, Metabolic Activation: RAT, LIVER, S-9, AROCLOR 1254 (10 OR 30%), Method: PREINCUBATION); “inactive; negative” (Test System: AMES SALMONELLA TYPHIMURIUM, Strain/Indicator: TA1535, Metabolic Activation: HAMSTER, LIVER, S-9, AROCLOR 1254 (10 OR 30%), Method: PREINCUBATION); “inactive; negative” (Test System: AMES SALMONELLA TYPHIMURIUM, Strain/Indicator: TA1535, Metabolic Activation: NONE, Method: PREINCUBATION); “inactive; negative” (Test System: AMES SALMONELLA TYPHIMURIUM, Strain/Indicator: TA1535, Metabolic Activation: RAT, LIVER, S-9, AROCLOR 1254 (10 OR 30%), Method: PREINCUBATION).

In the case of `CC(C)(S)[C@@H](N)C(=O)O`, the mutagenic call (Test System: AMES SALMONELLA TYPHIMURIUM, Strain/Indicator: TA92, Metabolic Activation: HOMOGENIZED V-79, Method: STANDARD PLATE) was “active; positive”; the mutagenic call (Test System: AMES SALMONELLA TYPHIMURIUM, Strain/Indicator: TA92, Metabolic Activation: NONE, Method: STANDARD PLATE) is “active; positive”; the mutagenic call (Test System: AMES SALMONELLA TYPHIMURIUM, Strain/Indicator: TA92, Metabolic Activation: RAT, KIDNEY, S-9, Method: STANDARD PLATE) is “active; positive”; the mutagenic call (Test System: AMES SALMONELLA TYPHIMURIUM, Strain/Indicator: TA92, Metabolic Activation: RAT, LIVER, S-9, Method: STANDARD PLATE) was “active; positive”; the mutagenic call (Test System: AMES SALMONELLA TYPHIMURIUM, Strain/Indicator: TA100, Metabolic Activation: NONE, Method: STANDARD PLATE) was “active; positive”; the mutagenic call (Test System: AMES SALMONELLA TYPHIMURIUM, Strain/Indicator: TA100, Metabolic Activation: RAT, KIDNEY, S-9, Method: STANDARD PLATE) was “active; positive”. The mutagenic call (Test System: AMES SALMONELLA TYPHIMURIUM, Strain/Indicator: TA100, Metabolic Activation: RAT, LIVER, S-9, Method: STANDARD PLATE) was “active; positive”; the mutagenic call (Test System: AMES SALMONELLA TYPHIMURIUM, Strain/Indicator: TA102, Metabolic Activation: NONE, Method: STANDARD PLATE) was “active; positive”; the mutagenic call (Test System: CHINESE HAMSTER V-79, Strain/Indicator: V-79/6-THIOGUANINE, Metabolic Activation: NONE, Method: STANDARD PLATE) is “inactive; negative”.
